Results on 4 compounds are retold here after US20240287044A1, “SALT OF SELECTIVE FGFR4 INHIBITOR, AND PREPARATION METHOD THEREFOR AND APPLICATION THEREOF” (ZHEJIANG HISUN PHARMACEUTICAL CO., LTD., priority 2021, published 2024).

Structures are written as SMILES. “And” between values parts separate entries of the source, which are not always exact repeats. Equal entries are not always repeated. Structures can show the parent of a compound that is named as a salt.

Data set [1] is described as follows: Pharmacokinetics of different salt forms (ICR mice). The following applies: 75 mg·kg^−1 single gavage, fasted, normal saline, plasma. In kind it is in vivo. The protocol:
After vortex oscillation, ultrasonication was carried out. If necessary, shearing and emulsification or grinding could be carried out until well mixed, to obtain an administration formulation with a concentration of 7.5 mg· mL^−1.
(§1) Experimental animals were kept in animal rooms, which were well ventilated and equipped with air conditioning, and the temperature was maintained at 20-25° C., humidity at 40%-70%, and light and dark lighting for 12 hours each, and the experimental animals were allowed to eat and drink freely. After normal feeding for about 5 days, rats with good physical condition could be selected for this experiment after examination by a veterinary. Each rat was marked with a tail number.
(§2) The detailed administration regimen of the ICR mice experiment is seen in Table 5. On the day before the experiment, all ICR mice were fasted overnight (equal to or more than 12 hours). On the day of the experiment, after weighing, the theoretical administration volume for each mouse was calculated according to the following formula. The administration formulation should be prepared on the day of the experiment, and the interval between preparation and administration should not exceed 2 hours. The actual administration amount of each rat and the collection time of the plasma sample should be recorded in detail in the corresponding table. ICR mice were allowed to restore eating 4 hours after administration, and were allowed to drink water freely during the experiment.
Before and 0.25, 0.5, 1, 2, 4, 8, 10, 12 and 24 hours after administration, 0.15 mL blood was collected from fundus venous plexus and placed into anticoagulant tubes containing EDTA-K2.
All whole blood samples were subjected to centrifugation for 10 minutes (5500 rpm), and then the plasma was separated and stored in a refrigerator at −30 to −10° C.

Data set [2] relates to Hep3B human liver carcinoma subcutaneous transplanted tumor. The data set is described as follows: Subcutaneous transplantation model of Hep3B human liver carcinoma. In kind it is in vivo, BALB/c nude mice. The following applies: for anti-tumor activity (in words): Hep3B model, 50 mg/kg twice a day gavage 10 days. The method, then: Preparation of administration formulation for gavage administration: sorafenib, free-base compounds as represented by formula (I) and its maleate salts, phosphate salts, hydrochloride salts, mesylate salts, and ethanesulfonate salts were accurately weighed respectively, and an appropriate volume of normal saline was added, and then vortex oscillation was performed until mixed well, and the administration formulation was prepared just before use.
BALB/c nude mice, female, purchased from Jiangsu Jicui Pharmacom Biotechnology Co. Licence No.: SCXK (Su) 2019-0009, Animal Qualification Certificate No.: 202102418.
After arrival, animals were required to be kept in the experimental environment for 7 days before starting the experiment. The experimental animals were kept in intelligent independent ventilation cages (IVC) with constant temperature and humidity. The temperature was maintained at 20-26° C. and the humidity was maintained at 40-70%. Under a light-dark cycle of 10 hours light/14 hours dark, the experimental animals were allowed to free access to food and water. The animals were labeled using ear tag.
Establishment of subcutaneous tumor model of Hep3B cell: 0.2 mL of a cell suspension containing 3.5×10^6 Hep3B cells was inoculated subcutaneously on the right side of the back of female BALB/c nude mice aged over 6 weeks to establish a transplant tumor. The diameter of tumor was measured with a vernier caliper, and tumor volume was calculated using the following formula: tumor volume=0.5×a×b^2, where a and b represented the long and short diameter of the tumor, respectively. The tumor-bearing mice were randomly divided into 9 groups and administered according to the experimental design when the average tumor volume was at a range of 200-250 mm^3. Mice in each treatment group and solvent control group were subjected to orally intragastric administration for 10 days. The tumor volume of mice was measured twice weekly, and the body weight was weighed daily. The curative effect was assessed based on the relative tumor growth inhibition (TGI) rate (%), and safety was evaluated according to the change of body weight and mortality of animals.

A short description of data set [3]: Pharmacokinetic study on different salt forms (SD rats). The format is in vivo. The following applies: 20 mg·kg^−1 single gavage, fasted, 0.5% CMC-Na, plasma. The method, then: After vortex oscillation, ultrasonication was carried out. If necessary, shearing and emulsification or grinding could be carried out until well mixed, to obtain an administration formulation with a concentration of 2 mg· mL^−1.
as §1
as §2, with “the animal” for “the ICR mice”, “Table 2.” for “Table 5.”, “all SD rats” for “all ICR mice”, “each rat” for “each mouse”, “table. SD rats” for “table. ICR mice”
Before and 0.25, 0.5, 1, 2, 4, 8, 12 and 24 hours after administration, 0.15 mL blood was collected from jugular vein and placed into anticoagulant tubes containing EDTA-K2.
All whole blood samples were subjected to centrifugation for 10 minutes (5500 rpm), and then the plasma was separated and stored in a refrigerator at −30° C. to −10° C.
The corresponding pharmacokinetic parameters were calculated using the […] of Pharsight Phoenix 7.0, and the results are shown in Table 3 below.

The subject of data set [4] is hepatocellular carcinoma cells Hep3B. The following applies: in vitro, read-out: IC50 value, inhibitory activity against Hep3B; cited from earlier work.
[5] abbreviates: day 11 after administration, gavage 10 days, 50 mg/kg twice a day (based on formula (I)), sorafenib 30 mg/kg once a day.
The mark [6] stands for this setting: day 11 after administration, gavage 10 days, 50 mg/kg twice a day (based on formula (I)), sorafenib 30 mg/kg once a day, listed as sorafenib.

As a reminder, the Cmax is the maximum level reached in the sampled fluid or tissue. The term Tmax denotes the time at which the peak concentration occurs. For `C=CC(=O)Nc1cc(N2CCN(CC)C3(CC3)C2)ccc1Nc1cc(N(C)C(=O)Nc2c(Cl)c(OC)cc(OC)c2Cl)ncn1` [mesylate salt], in data set [1], the AUC0-t came out at 8.66 µg·h/mL, the Cmax came to 3.74 µg/mL, the T1/2 is listed as 1.78 h and the Tmax was 0.250 h. Further, the “anti-tumor activity (in words)” value in data set [2] is “significant anti-tumor activity”. Also, the “tumor volume (x ± S)” value in data set [2] (setting [5]) was 93 mm^3 and 93 ± 32 mm^3. Also, in data set [3], the AUC0-t was determined as 0.35727 µg·h/mL, the Cmax was found to be 0.09939 µg/mL, the T1/2 turned out to be 3.01 h and the Tmax stood at 0.42 h.

As usually defined, the IC50 is the point on the concentration scale where inhibition reaches its midpoint. In general, half-life refers to the time in which the quantity being followed falls by half. With `C=CC(=O)Nc1cc(N2CCN(CC)C3(CC3)C2)ccc1Nc1cc(N(C)C(=O)Nc2c(Cl)c(OC)cc(OC)c2Cl)ncn1` [Free base, N-(2-((6-(3-(2,6-dichloro-3,5-dimethoxyphenyl)-1-methylureido)pyrimidin-4-yl)amino)-5-(4-ethyl-4,7-diazaspiro[2.5]octane-7-yl)phenyl) acrylamide], the IC50 in data set [4] was 0.019 µM. For the same compound, the “anti-tumor activity (in words)” value in data set [2] was “significant anti-tumor activity”. In addition, the “tumor volume (x ± S)” value in data set [2] (day 11 after administration, gavage 10 days, 50 mg/kg twice a day (based on formula (I)), sorafenib 30 mg/kg once a day, listed as compound as represented by formula) is reported as 314 ± 72 mm^3. For the same compound, the “tumor volume (x ± S)” value in data set [2] (day 11 after administration, gavage 10 days, 50 mg/kg twice a day (based on formula (I)), sorafenib 30 mg/kg once a day, listed as compound as represented by formula (I)) is on record as 314 mm^3. In addition, in data set [3], the AUC0-t was 0.19455 µg·h/mL, the Cmax was found to be 0.05274 µg/mL and the Tmax came to 4.00 h. Moreover, in data set [3] (SD, rat, po, 20 mg/kg), the half-life was 2.15 h.

For `CNC(=O)c1cc(Oc2ccc(NC(=O)Nc3ccc(Cl)c(C(F)(F)F)c3)cc2)ccn1` [Sorafenib, reference compound], in data set [2] (setting [5]), the “T/C (%) relative tumor proliferation rate” value amounted to 57.10%, the “TGI (%) relative tumor growth inhibition” value is recorded as 42.90%, the “relative tumor volume (x ± S)” value was found to be 5.50 ± 0.22 and the “tumor volume (x ± S)” value is given as 1238 ± 199 mm^3. Besides, in data set [2] (setting [6]), the “TGI (%) relative tumor growth inhibition” value came out at 42.9% and the “tumor volume (x ± S)” value is 1238 mm^3.

With `C=CC(=O)Nc1cc(N2CCN(CC)C3(CC3)C2)ccc1Nc1cc(N(C)C(=O)Nc2c(Cl)c(OC)cc(OC)c2Cl)ncn1` [ethanesulfonate salt], the AUC0-t came to 9.66 µg·h/mL in data set [1] (ICR, mouse, po, 75 mg/kg, read-out: AUC0-t) and 0.41081 µg·h/mL in data set [3]. Moreover, the Cmax worked out at 4.11 µg/mL in data set [1] (ICR, mouse, po, 75 mg/kg, read-out: Cmax) and 0.14181 µg/mL in data set [3]. Besides, the Tmax worked out at 0.5 h in data set [1] (ICR, mouse, po, 75 mg/kg, read-out: Tmax) and 1.50 h in data set [3]. Also, the “anti-tumor activity (in words)” value in data set [2] was “significant anti-tumor activity”. Besides, in data set [2] (setting [5]), the “tumor volume (x ± S)” value was 121 mm^3 and 121 ± 17 mm^3. In addition, the T1/2 in data set [3] stood at 2.37 h.
